Experimental data from ChEMBL document CHEMBL5608235, “Tricyclic Benzo[1,3]oxazinyloxazolidinones as Potent Antibacterial Agents against Drug-Resistant Pathogens” (J Med Chem, 2024).
Converted amounts (≈) assume the structure as drawn. The source made the active and inactive calls. No cut-off for these calls is given here.

How the values were obtained:
Staphylococcus aureus [1] = assay: Inhibition of biofilm formation in Staphylococcus aureus ATCC 29213 at 1 to 10 ug/ml incubated for 48 hrs by crystal violet staining based assay; format: functional, organism-based; conditions: dose 1-10 µg/ml
[2] = system: Mycobacterium tuberculosis; assay: Antibacterial activity against Mycobacterium tuberculosis H37Rv assessed as inhibition of bacterial growth incubated for 7 days by alamar blue assay; format: functional; conditions: 168 h, time 7 day
Staphylococcus aureus [3] = assay: Antibacterial activity against methicillin resistant Staphylococcus aureus clinical isolate 20-1 assessed as inhibition of bacterial growth incubated for 7 days by alamar blue assay; format: functional; conditions: clinical isolate 20-1, 168 h, time 7 day
Staphylococcus aureus [4] = assay: Inhibition of biofilm formation in methicillin resistant Staphylococcus aureus ATCC 33592 at 0.1 to 10 ug/ml incubated for 48 hrs by crystal violet staining based assay; format: functional, organism-based; conditions: dose 0.1-10 µg/ml
Staphylococcus aureus [5] = assay: Antibacterial activity against methicillin resistant Staphylococcus aureus ATCC 33592 infected in cyclophosphamide-induced immunosuppressed Kunming mouse assessed as increase in IL-10 level at po administration measured after 24 hrs by ELISA; format: functional, organism-based
Bacillus subtilis = assay: Antibacterial activity against Bacillus subtilis ATCC6633 assessed as inhibition of bacterial growth incubated for 18 hrs by microdilution broth assay; format: functional
[6] = Cmax in BALB/c mouse at 1 mg/kg,iv administration measured upto 24 hrs by LC-MS/MS analysis; format: ADME, organism-based; conditions: in vivo
Cell membrane [7] = assay: Disruption of cell membrane integrity in Staphylococcus aureus ATCC 25923 assessed as increase in red fluorescence at 1 ug/ml incubated for 1 hr by […] and propidium iodide double staining based confocal microscopic analysis; format: cell membranes; conditions: dose 1.0 µg/ml
Staphylococcus aureus [8] = assay: Bacteriostatic activity against methicillin resistant Staphylococcus aureus ATCC 33592 at 4 times MIC incubated for 2 to 24 hrs by time-kill assay; format: functional, organism-based; conditions: time 2-24 hrs
Staphylococcus aureus [9] = assay: Antibacterial activity against methicillin resistant Staphylococcus aureus ATCC 33592 infected in cyclophosphamide-induced immunosuppressed Kunming mouse assessed as reduction in bacterial load in lung at 10 to 50 mg/kg,po administration measured after 24 hrs by hematoxylin and eosin staining based microscopy; format: functional, organism-based; conditions: dose 10-50 mg/kg
Staphylococcus aureus [10] = assay: Antibacterial activity against vancomycin resistant Staphylococcus aureus assessed as inhibition of bacterial growth incubated for 7 days by alamar blue assay; format: functional; conditions: 168 h, time 7 day
Staphylococcus aureus [11] = assay: Antibacterial activity against methicillin resistant Staphylococcus aureus ATCC 33592 infected in cyclophosphamide-induced immunosuppressed Kunming mouse assessed as reduction in inflammatory cell infiltration in kidney at 50 mg/kg,po administration measured after 24 hrs by hematoxylin and eosin staining based microscopy; format: functional, organism-based
[12] = system: Staphylococcus epidermidis; assay: Antibacterial activity against methicillin resistant Staphylococcus epidermidis clinical isolate 20-1 assessed as inhibition of bacterial growth incubated for 7 days by alamar blue assay; format: functional; conditions: clinical isolate 20-1, 168 h, time 7 day
[13] = Free AUC in BALB/c mouse at 10 mg/kg,po administration measured upto 24 hrs by LC-MS/MS analysis; format: ADME, organism-based; conditions: in vivo
Staphylococcus aureus [14] = assay: Antibacterial activity against methicillin resistant Staphylococcus aureus ATCC 33592 infected in cyclophosphamide-induced immunosuppressed Kunming mouse assessed as reduction in inflammatory cell infiltration in liver at 50 mg/kg,po administration measured after 24 hrs by hematoxylin and eosin staining based microscopy; format: functional, organism-based
Staphylococcus aureus [15] = assay: Antibacterial activity against methicillin resistant Staphylococcus aureus ATCC 33592 infected in cyclophosphamide-induced immunosuppressed Kunming mouse assessed as decrease in IL-6 level at po administration measured after 24 hrs by ELISA; format: functional, organism-based
[16] = Metabolic stability in human liver microsomes assessed as compound remaining at 10 uM incubated for 60 mins in absence of NADPH by LC-MS/MS analysis; format: ADME, Microsome; conditions: read-out: Stability
[17] = Plasma protein binding in BALB/c mouse at 1 mg/kg,iv administration measured upto 24 hrs by LC-MS/MS analysis; format: ADME, organism-based; conditions: read-out: PPB (converted)
Staphylococcus aureus [18] = assay: Antibacterial activity against methicillin resistant Staphylococcus aureus ATCC 33592 infected in cyclophosphamide-induced immunosuppressed Kunming mouse assessed as reduction in bacterial load in kidney at 25 to 50 mg/kg,po administration measured after 24 hrs by hematoxylin and eosin staining based microscopy; format: functional, organism-based; conditions: dose 25-50 mg/kg
Staphylococcus aureus [19] = assay: Antibacterial activity against methicillin resistant Staphylococcus aureus ATCC 33592 infected in cyclophosphamide-induced immunosuppressed Kunming mouse assessed as increase in body weight at 10 to 50 mg/kg,po administration measured for 7 days; format: functional, organism-based; conditions: dose 10-50 mg/kg, time 7.0 day
Staphylococcus aureus [20] = assay: Antibacterial activity against methicillin resistant Staphylococcus aureus ATCC 33592 infected in cyclophosphamide-induced immunosuppressed Kunming mouse assessed as decrease in TNF-alpha level at po administration measured after 24 hrs by ELISA; format: functional, organism-based
[21] = Clearance in BALB/c mouse at 1 mg/kg,iv administration measured upto 24 hrs by LC-MS/MS analysis; format: ADME, organism-based; conditions: in vivo
Staphylococcus aureus [22] = assay: Antibacterial activity against methicillin resistant Staphylococcus aureus ATCC 33592 infected in cyclophosphamide-induced immunosuppressed Kunming mouse assessed as reduction in histopathological change in spleen at 10 mg/kg,po administration measured after 24 hrs by hematoxylin and eosin staining based microscopy; format: functional, organism-based
[23] = Metabolic stability in ICR mouse liver microsomes assessed as compound remaining at 10 uM incubated for 60 mins in absence of NADPH by LC-MS/MS analysis; format: ADME, Microsome; conditions: read-out: Stability
Cell membrane [24] = assay: Disruption of cell membrane integrity in methicillin resistant Staphylococcus aureus ATCC 33592 assessed as increase in blue fluorescence at 1 ug/ml incubated for 1 hr by […] and propidium iodide double staining based confocal microscopic analysis; format: cell membranes; conditions: dose 1.0 µg/ml
Staphylococcus aureus [25] = assay: Antibacterial activity against methicillin resistant Staphylococcus aureus ATCC 33592 infected in cyclophosphamide-induced immunosuppressed Kunming mouse by measuring survival rate of mouse at 10 mg/kg,po administration measured for 7 days; format: functional; conditions: ATCC 33592, 168 h, time 7 day
[26] = AUC (0 to t) in BALB/c mouse at 10 mg/kg,po administration measured upto 24 hrs by LC-MS/MS analysis; format: ADME, organism-based; conditions: in vivo
Cell membrane [27] = assay: Disruption of cell membrane in methicillin resistant Staphylococcus aureus ATCC 33592 assessed as cell lysis at 0.5 ug/ml incubated for 6 hrs by Scanning electron microscopic analysis; format: cell membranes; conditions: dose 0.5 µg/ml
Cell membrane [28] = assay: Disruption of cell membrane integrity in methicillin resistant Staphylococcus aureus ATCC 33592 assessed as increase in red fluorescence at 0.5 ug/ml incubated for 1 hr by […] and propidium iodide double staining based confocal microscopic analysis; format: cell membranes; conditions: dose 0.5 µg/ml
Cell membrane [29] = assay: Disruption of cell membrane in methicillin resistant Staphylococcus aureus ATCC 33592 assessed as cell surface perforation at 0.5 ug/ml incubated for 6 hrs by Scanning electron microscopic analysis; format: cell membranes; conditions: dose 0.5 µg/ml
Staphylococcus aureus [30] = assay: Antibacterial activity against methicillin resistant Staphylococcus aureus ATCC 33592 infected in cyclophosphamide-induced immunosuppressed Kunming mouse assessed as reduction in inflammatory cell infiltration in lung at 10 to 50 mg/kg,po administration measured after 24 hrs by hematoxylin and eosin staining based microscopy; format: functional, organism-based; conditions: dose 10-50 mg/kg
[31] = MRT (0 to t) in BALB/c mouse at 10 mg/kg,po administration measured upto 24 hrs by LC-MS/MS analysis; format: ADME, organism-based; conditions: in vivo

CC(=O)NC[C@@H]1OC(=O)N2Cc3cc(-c4ccc(C#N)cc4)c(F)cc3O[C@@H]12
inhibition (Staphylococcus aureus [1]): Active | MIC [2]: 0.52 µg/mL (≈ 1.36 µM) | MIC (Staphylococcus aureus [3]): 0.5 µg/mL (≈ 1.31 µM) | inhibition (Staphylococcus aureus [4]): Active | Activity (Staphylococcus aureus [5]): Dose-Dependent Effect | MIC (Bacillus subtilis): 0.032 µg/mL (≈ 0.0839 µM) | Cmax [6]: 814 ng/mL | Activity (Cell membrane [7]): Active | Activity (Staphylococcus aureus [8]): Active | Activity (Staphylococcus aureus [9]): Active | MIC (Staphylococcus aureus [10]): 1 µg/mL (≈ 2.62 µM) | Activity (Staphylococcus aureus [11]): Active | MIC [12]: 0.06 µg/mL (≈ 0.157 µM) | fAUC [13]: 14940 ng·h/mL | Activity (Staphylococcus aureus [14]): Active | Activity (Staphylococcus aureus [15]): Dose-Dependent Effect | remaining at 1 h, 10 µM [16]: 120% | fraction unbound at 24 h [17]: 0.239 | Activity (Staphylococcus aureus [18]): Active | Activity (Staphylococcus aureus [19]): Active | Activity (Staphylococcus aureus [20]): Dose-Dependent Effect | clearance [21]: 2.92 mL/min/kg | Activity (Staphylococcus aureus [22]): Active | remaining at 1 h, 10 µM [23]: 101% | Activity (Cell membrane [24]): Active | survival at 10 mg/kg (Staphylococcus aureus [25]): 85.7% | AUC(0-t) at 24 h [26]: 62500 ng·h/mL | Activity (Cell membrane [27]): Active | Activity (Cell membrane [28]): Active | Activity (Cell membrane [29]): Active | Activity (Staphylococcus aureus [30]): Active | MRT last at 24 h [31]: 9.3 h
